The test system of experiment [1] is human pluripotent stem cells. The experiment in a line: HD-DoE #2: 13-factor model, differentiation toward anterior neuroectoderm, gene expression. Type of experiment: cell-based. The conditions noted are these: dynamic profiling analysis, 13-factor model. An excerpt: To further enhance the conditions for oligodendrocyte differentiation from pluripotency, we performed an additional HD-DoE experiment. We obtained additional gene regulatory models that were used for preparation of a differentiation protocol. The basis of this was a 13-factor HD-DoE experiment with focus on initiation of differentiation of cells toward anterior neuroectoderm. In this model, we focused on expression of FEZF2 and OTX2.
As shown in the results summarized in FIG. 4, the model was optimized for highest expression of OTX2 at 12755.9. According to the model of high expression of OTX2, seven effectors had positive contribution including MK2206, PD0325901, CHIR99021, LDN193189, Go6983, PD173074 and BLU9931 with highest factor contribution of 22.2 for MK2206 and lowest factor contribution of 1.7 for PD173074 and BLU9931.
As shown in the results summarized in FIG. 5, the model was optimized for highest expression of FEZF2 at 4466. When the model was optimized for maximum expression level of FEZF2, three effectors including LDN193189 with factor contribution of 19.5, PD0325901 with factor contribution of 14.6 and MK2206 with factor contribution of 12.3 were common with previous condition and three new effectors including purmorphamine-500 nM, XAV939 and SC79 were introduced.
As shown in the results summarized in FIG. 6, to fine-tune the recipe and find the optimum combination of factors for high expression of both OTX2 and FEZF2, dynamic profiling analysis was done. […] Therefore, these two factors were added to the optimized culture recipe.

Experiment [2] deals with pre-OPCs. The experiment in a line: HD-DoE second 12-factor model for stage 2 (Purmorphamine with TTNPB, Biotin, Insulin etc.). Type of experiment: cell-based, human. The conditions noted are these: optimized for OLIG2 at 3299.4; positive impact. How it is done:
(§1) To gain more information about the effect of Purmorphamine on differentiation of pre-OPCs to a more committed cell population, we tested this factor in two other models. In a 12-factor model, we included Purmorphamine, FGF2, AGN193109 and CHIR99021 along with 8 new inputs including TTNPB, Biotin, Insulin, propionate, DBZ, Yhhu3792, LDN193189 and Y-27632. […] In another 12-factor model, Purmorphamine was tested along with A 8301, CHIR99021, Dexamethasone, T3+T4, PD0325901, ZM336372, DBZ, BMP7, PD173074, SANT-1 and PDGF-AA.

The test system of experiment [3] is stage 1 pre-OPCs. Put plainly: HD-DoE third 12-factor model for stage 2 (Purmorphamine with A 8301, Dexamethasone etc.). Type of experiment: cell-based, human. The conditions noted are these: optimized for OLIG2 at 644.6; positive impact. How it is done:
as §1

Experiment [4] deals with stage 2 early-OPCs. Put plainly: HD-DoE 12-factor model for stage 3 (version 1) on stage 2 early-OPCs. Format: cell-based, human. The conditions noted are these: positive. How it is done: In another model, the effects of Activin A and TTNPB along with LDN193189, MHY1485, PDGF-AA, AICAR, FGF2, CHIR99021, DBZ, MK2206, Purmorphamine and T3+T4 were tested on gene profile of differentiating cells. When this model was optimized for maximum expression of SOX10 at 54.7, we observed Activin A again had positive regulatory impact on its expression, with factor contribution of 4.7. Other positive factors included MK2206, with the highest factor contribution at 16.2, MHY1485 at 11.49, CHIR99021 at 9.6, DBZ at 9.3, FGF2 at 3.6 and PDGF-AA, with factor contribution less than 3 (FIG. 20).
In this model, we also investigated the conditions of expression of another important OPC gene, CSPG4 (Goldman and Kuypers (2015) Development 142:3983-95: van Tilborg et al. (2018) Glia 66:221-238).
Dynamic profile analysis was used to better assess the impact of the factors on our selected genes and find the combination set that can optimize their expression (FIG. 22). According to this analysis, even though Activin A has a positive effect on SOX10, it decreases level of PDGFRa and OLIG1. […] Moreover, SOX10 is one of the main transcription factors of oligodendrocytes, along with OLIG2 and NKX2-2, that has shown the potential to commit the stem cells to oligodendrocytes in reprogramming efforts (Wang et al. (2014) Proc Natl Acad Sci USA 111:E2885-94; Garciá-León et al. (2018) Stem Cell Reports 10:655-672). […] One of the main challenges of differentiating cells to oligodendrocyte fate is controlling the mixed population and increasing the purity of the culture by committing more cells to oligodendrocyte over neuronal identity. Therefore, DBZ was excluded from the final recipe.
At this point, we investigated the expression profile of a larger group of genes defining oligodendrocyte progenitor population at a later stage, including ID2, CNP and BCAN (Perlman et al. (2020). Glia 68:1291-1303; Goldman and Kuypers (2015) Development 142:3983-95). In this model, these genes were expressed at 1900, 660 and 44, respectively.

The test system of experiment [5] is OPCs. Put plainly: HD-DoE 8-factor model for stage 4 on OPCs. Format: cell-based, human. The conditions noted are these: optimized for maximal expression of CNP at 1339; positive. How it is done:
To engineer the recipe of stage 4 of differentiation, 48 or 96 different combinations of effectors generated using Design-of-Experiments compression through D-optimality were robotically prepared. The effector combinations were prepared in a basal media and were subsequently added to the cells, which were treated with the stage 1, stage 2 and stage 3 differentiation media as described in the earlier examples to generate OPCs. […] Solutions within the tested space could then be explored to address desirability.

In experiment [6] the test system is cells cultured in stage 1 and stage 2 differentiation media. Put plainly: Two further HD-DoE models optimized for SOX10 (IGF-1, FGF-2, AGN193109). Format: cell-based, human. The conditions noted are these: two other models optimized for SOX10. An excerpt:
According to literature, proteins such as FGF-2, IGF-1, PDGF-AA and NT-3 play an important role in oligodendrocyte differentiation (Goldman and Kuypers (2015) Development 142:3983-95). In the first model, FGF-2 had positive regulatory impact only on the expression level of SOX10 and IGF-1 on PDGFRa. Therefore, to further understand the impact of IGF-1 and FGF-2 on differentiation of cells and confirm their positive role, we included these factors in two other models and optimized the models for maximum expression of SOX10. This gene is one of the main transcription factors of oligodendrocytes, along with OLIG2 and NKX2-2 that has shown the potential to commit the stem cells to oligodendrocytes in reprogramming efforts (Wang et al, (2014) Proc Natl Arad Sri USA 111:E2885-94; García-León et al. (2018) Stem Cell Reports 10:655-672).

Several values for one entry are separate records, joined by “and”; a condition that tells them apart may be missing. Identical values can stand only once.

Regarding `c1ccc2c(Oc3nc(Nc4ccc(N5CCOCC5)cc4)c4ncn(C5CCCCC5)c4n3)cccc2c1` [Purmorphamine], the “effect on expression of FEZF2” value in experiment [1] is reported as “significant positive effects”. Further, the “impact on expression level of OTX2” value in experiment [1] is given as “no negative impact”. In addition, the factor contribution was 13 and 13.03 in experiment [2]; 16.9 in experiment [3]; 10.3 in experiment [4] (optimized for maximum expression of CSPG4 at 38.6); 10 in experiment [5].

In the case of “FGF2: FGF pathway activator, an FGFR agonist”, the factor contribution in experiment [4] (optimized for maximum expression of SOX10 at 54.7) was determined as 3.6. Further, the “impact on the expression level of SOX10” value in experiment [6] is recorded as “positive impact”.

For the origin of these results see patent US12729368B2, “Methods and compositions for generating oligodendrocyte progenitor cells” (Trailhead Biosystems Inc., priority 2022, dated 2026).
